US6737383B1, “Herbicidal oxadiazolidines” (priority 1999, dated 2004)

Columns and labels:
[1] = tested on: purple nutsedge; assay: Test B pre/postemergence purple nutsedge; type: in vivo, Cyperus rotundus
In short: (§1)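 Test chemicals in a non-phytotoxic solvent mixture with surfactant were sprayed preemergence onto planted seeds and postemergence onto plants 2 to 18 cm tall (1- to 4-leaf stage). After twelve to sixteen days in a greenhouse, injury was visually rated against untreated controls from 0 (no effect) to 10 (complete control).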

[2] = tested on: morningglory; assay: Test B pre/postemergence morningglory; type: in vivo, Ipomoea hederacea
In short: as §1

[3] = tested on: duck salad; assay: Test B flood test duck salad; type: in vivo, Heteranthera limosa
In short: (§2)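 Read-out is a visual response score from 0 (no effect) to 10 (complete control), assigned by comparison with untreated controls. Treatment was applied at the 2-leaf stage, and plants stayed in the greenhouse for twelve to sixteen days before scoring.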

[4] = tested on: bamyardgrass; assay: Test B flood test barnyardgrass; type: in vivo, Echinochloa crus-galli
In short: as §2

[5] = tested on: giant foxtail; assay: Test B pre/postemergence giant foxtail; type: in vivo, Setaria faberii
In short: as §1

[6] = tested on: surinam grass; assay: Test B pre/postemergence surinam grass; type: in vivo, Brachiaria decumbens
In short: as §1

[7] = tested on: cocklebur; assay: Test B pre/postemergence cocklebur; type: in vivo, Xanthium strumarium
In short: as §1

[8] = tested on: smallflower flatsedge; assay: Test B flood test smallflower flatsedge; type: in vivo, Cyperus difformis
In short: as §2

[9] = tested on: sugar beet; assay: Test B pre/postemergence sugar beet; type: in vivo, Beta vulgaris
In short: as §1

[10] = tested on: crabgrass; assay: Test B pre/postemergence crabgrass; type: in vivo, Digitaria sanguinalis
In short: as §1

[11] = tested on: wild oat; assay: Test B pre/postemergence wild oat; type: in vivo, Avena fatua
In short: as §1

[12] = tested on: corn; assay: Test B pre/postemergence corn; type: in vivo, Zea mays
In short: as §1

[13] = tested on: wheat; assay: Test B pre/postemergence wheat; type: in vivo, Triticum aestivum
In short: as §1

[14] = tested on: rape; assay: Test B pre/postemergence rape; type: in vivo, Brassica napus
In short: as §1

[15] = tested on: pigweed; assay: Test B pre/postemergence pigweed; type: in vivo, Amaranthus retroflexus
In short: as §1

[16] = tested on: rice; assay: Test B flood test rice; type: in vivo, Oryza sativa
In short: as §2

[17] = Postemergence, Rate 62 g/ha, scale 0 to 10, 0 is no effect, 10 is complete control
[18] = Postemergence, Rate 125 g/ha, scale of 0 to 10 where 0 is no effect and 10 is complete control
[19] = Postemergence, Rate 250 g/ha, scale of 0 to 10, 0 is no effect, 10 is complete control
[20] = Postemergence, Rate 500 g/ha, scale of 0 to 10 where 0 is no effect and 10 is complete control
[21] = Preemergence, Rate 62 g/ha, scale 0 to 10 (0 no effect, 10 complete control)
[22] = Preemergence, Rate 125 g/ha, scale of 0 to 10 where 0 is no effect and 10 is complete control
[23] = Preemergence, Rate 500 g/ha, scale of 0 to 10 where 0 is no effect and 10 is complete control
[24] = Rate 62 g/ha, flood test species, Pre-emergence, visual evaluation after twelve to sixteen days
[25] = Rate 125 g/ha, under heading Pre-emergence, flood test species, visual evaluation after twelve to sixteen days
[26] = Rate 250 g/ha, Pre-emergence (flood test species), scale 0 to 10, 0 is no effect, 10 is complete control
[27] = Rate 500 g/ha, Pre-emergence section of Table B, 0 to 10 scale (0 no effect, 10 complete control)

**Q.** For `CC(C)N(C(=O)n1oc(=O)n(CC2=NOCCC2)c1=O)c1ccc(F)cc1F` [Compound 602], which “Plant response rating, Nutsedge” value [1, 17] is on record?
**A.** 0

**Q.** What about the “Plant response rating, Nutsedge” value [1, 18] of the same compound?
**A.** 0

**Q.** What about the “Nutsedge plant response rating” value [1, 19] of the same compound?
**A.** 0

**Q.** And the “Plant response rating, Nutsedge” value [1, 20]?
**A.** 0

**Q.** And the “Nutsedge plant response rating” value [1, 21]?
**A.** 0

**Q.** And the “Nutsedge plant response rating” value [1, 22]?
**A.** 0

**Q.** What about the “Plant response rating, Nutsedge” value [1, 23] of the same compound?
**A.** 0

**Q.** And the “Plant response rating, Morningglory” value [2, 17]?
**A.** 0

**Q.** And the “Plant response rating, Morningglory” value [2, 18]?
**A.** 1

**Q.** What about the “Morningglory plant response rating” value [2, 19] of the same compound?
**A.** 2

**Q.** And the “Plant response rating, Morningglory” value [2, 20]?
**A.** 3

**Q.** What about the “Morningglory plant response rating” value [2, 21] of the same compound?
**A.** 0

**Q.** And the “Morningglory plant response rating” value [2, 22]?
**A.** 0

**Q.** And the “Plant response rating, Morningglory” value [2, 23]?
**A.** 0

**Q.** What about the “Plant response rating, Ducksalad (0 to 10 scale, 0 is no effect, 10 is complete control)” value [3, 24] of the same compound?
**A.** 0

**Q.** And the “Ducksalad plant response rating (0 to 10 scale, 0 is no effect, 10 is complete control)” value [3, 25]?
**A.** 0

**Q.** What about the “Ducksalad plant response rating” value [3, 26] of the same compound?
**A.** 0

**Q.** What about the “Ducksalad plant response rating” value [3, 27] of the same compound?
**A.** 0

**Q.** And the “Plant response rating, Barnyardgrass (0 to 10 scale, 0 is no effect, 10 is complete control)” value [4, 24]?
**A.** 0

**Q.** And the “Barnyardgrass plant response rating (0 to 10 scale, 0 is no effect, 10 is complete control)” value [4, 25]?
**A.** 0

**Q.** What about the “Barnyardgrass plant response rating” value [4, 26] of the same compound?
**A.** 0

**Q.** And the “Barnyardgrass plant response rating” value [4, 27]?
**A.** 0

**Q.** What about the “Plant response rating, Giant foxtail” value [5, 17] of the same compound?
**A.** 1

**Q.** What about the “Plant response rating, Giant foxtail” value [5, 18] of the same compound?
**A.** 8

**Q.** And the “Giant foxtail plant response rating” value [5, 19]?
**A.** 9

**Q.** What about the “Plant response rating, Giant foxtail” value [5, 20] of the same compound?
**A.** 9

**Q.** And the “Giant foxtail plant response rating” value [5, 21]?
**A.** 9

**Q.** What about the “Giant foxtail plant response rating” value [5, 22] of the same compound?
**A.** 9

**Q.** What about the “Plant response rating, Giant foxtail” value [5, 23] of the same compound?
**A.** 10

**Q.** What about the “Plant response rating, B. signalgrass” value [6, 17] of the same compound?
**A.** 0

**Q.** What about the “Plant response rating, B. signalgrass” value [6, 18] of the same compound?
**A.** 2

**Q.** And the “B. signalgrass plant response rating” value [6, 19]?
**A.** 5

**Q.** What about the “Plant response rating, B. signalgrass” value [6, 20] of the same compound?
**A.** 7

**Q.** What about the “B. signalgrass plant response rating” value [6, 21] of the same compound?
**A.** 0

**Q.** And the “B. signalgrass plant response rating” value [6, 22]?
**A.** 4

**Q.** And the “B. signalgrass plant response rating (0 to 10 scale, 0 is no effect, 10 is complete control)” value ([6]; Preemergence, Rate 250 g/ha)?
**A.** 7

**Q.** What about the “B. signalgrass plant response rating” value [6, 23] of the same compound?
**A.** 7

**Q.** What about the “Plant response rating, Cocklebur” value [7, 17] of the same compound?
**A.** 0

**Q.** And the “Plant response rating, Cocklebur” value [7, 18]?
**A.** 0

**Q.** And the “Cocklebur plant response rating” value [7, 19]?
**A.** 0

**Q.** What about the “Plant response rating, Cocklebur” value [7, 20] of the same compound?
**A.** 0

**Q.** What about the “Cocklebur plant response rating” value [7, 21] of the same compound?
**A.** 0

**Q.** What about the “Cocklebur plant response rating” value [7, 22] of the same compound?
**A.** 0

**Q.** And the “Cocklebur plant response rating (0 to 10 scale)” value ([7]; Preemergence, Rate 250 g/ha)?
**A.** 0

**Q.** What about the “Plant response rating, Cocklebur” value [7, 23] of the same compound?
**A.** 0

**Q.** What about the “Plant response rating, S. Flatsedge (0 to 10 scale, 0 is no effect, 10 is complete control)” value [8, 24] of the same compound?
**A.** 0

**Q.** What about the “S. Flatsedge plant response rating (0 to 10 scale, 0 is no effect, 10 is complete control)” value [8, 25] of the same compound?
**A.** 0

**Q.** And the “S. Flatsedge plant response rating” value [8, 26]?
**A.** 0

**Q.** And the “S. Flatsedge plant response rating” value [8, 27]?
**A.** 0

**Q.** And the “Plant response rating, Sugarbeets” value [9, 17]?
**A.** 0

**Q.** And the “Plant response rating, Sugarbeets” value [9, 18]?
**A.** 0

**Q.** And the “Sugarbeets plant response rating” value [9, 19]?
**A.** 0

**Q.** What about the “Plant response rating, Sugarbeets” value [9, 20] of the same compound?
**A.** 0

**Q.** What about the “Sugarbeets plant response rating” value [9, 21] of the same compound?
**A.** 0

**Q.** And the “Sugarbeets plant response rating” value [9, 22]?
**A.** 2

**Q.** And the “Plant response rating, Sugarbeets” value [9, 23]?
**A.** 5

**Q.** And the “Plant response rating, Crabgrass” value [10, 17]?
**A.** 2

**Q.** What about the “Plant response rating, Crabgrass” value [10, 18] of the same compound?
**A.** 4

**Q.** And the “Crabgrass plant response rating” value [10, 19]?
**A.** 4

**Q.** What about the “Plant response rating, Crabgrass” value [10, 20] of the same compound?
**A.** 9

**Q.** And the “Crabgrass plant response rating” value [10, 21]?
**A.** 7

**Q.** And the “Crabgrass plant response rating” value [10, 22]?
**A.** 8

**Q.** And the “Plant response rating, Crabgrass” value [10, 23]?
**A.** 10

**Q.** What about the “Plant response rating, Wild oats” value [11, 17] of the same compound?
**A.** 0

**Q.** What about the “Plant response rating, Wild oats” value [11, 18] of the same compound?
**A.** 0

**Q.** What about the “Wild oats plant response rating” value [11, 19] of the same compound?
**A.** 0

**Q.** And the “Plant response rating, Wild oats” value [11, 20]?
**A.** 3

**Q.** What about the “Wild oats plant response rating” value [11, 21] of the same compound?
**A.** 0

**Q.** What about the “Wild oats plant response rating” value [11, 22] of the same compound?
**A.** 3

**Q.** And the “Plant response rating, Wild oats” value [11, 23]?
**A.** 8

**Q.** And the “Plant response rating, Corn” value [12, 17]?
**A.** 0

**Q.** What about the “Plant response rating, Corn” value [12, 18] of the same compound?
**A.** 0

**Q.** And the “Corn plant response rating” value [12, 19]?
**A.** 0

**Q.** And the “Plant response rating, Corn” value [12, 20]?
**A.** 0

**Q.** And the “Corn plant response rating” value [12, 21]?
**A.** 0

**Q.** What about the “Corn plant response rating” value [12, 22] of the same compound?
**A.** 0

**Q.** And the “Corn plant response rating (0 to 10 scale)” value ([12]; Preemergence, Rate 250 g/ha)?
**A.** 0

**Q.** What about the “Plant response rating, Corn” value [12, 23] of the same compound?
**A.** 2

**Q.** What about the “Plant response rating, Wheat” value [13, 17] of the same compound?
**A.** 0

**Q.** And the “Plant response rating, Wheat” value [13, 18]?
**A.** 0

**Q.** What about the “Wheat plant response rating” value [13, 19] of the same compound?
**A.** 0

**Q.** What about the “Plant response rating, Wheat” value [13, 20] of the same compound?
**A.** 0

**Q.** And the “Wheat plant response rating” value [13, 21]?
**A.** 0

**Q.** And the “Wheat plant response rating” value [13, 22]?
**A.** 0

**Q.** What about the “Plant response rating, Wheat” value [13, 23] of the same compound?
**A.** 0

**Q.** What about the “Plant response rating, Rape” value [14, 17] of the same compound?
**A.** 0

**Q.** And the “Plant response rating, Rape” value [14, 18]?
**A.** 0

**Q.** What about the “Rape plant response rating” value [14, 19] of the same compound?
**A.** 0

**Q.** What about the “Plant response rating, Rape” value [14, 20] of the same compound?
**A.** 0

**Q.** What about the “Rape plant response rating” value [14, 21] of the same compound?
**A.** 0

**Q.** What about the “Rape plant response rating” value [14, 22] of the same compound?
**A.** 0

**Q.** And the “Plant response rating, Rape” value [14, 23]?
**A.** 3

**Q.** And the “Plant response rating, Redroot pigweed” value [15, 17]?
**A.** 2

**Q.** And the “Plant response rating, Redroot pigweed” value [15, 18]?
**A.** 2

**Q.** And the “Redroot pigweed plant response rating” value [15, 19]?
**A.** 3

**Q.** What about the “Plant response rating, Redroot pigweed” value [15, 20] of the same compound?
**A.** 6

**Q.** And the “Redroot pigweed plant response rating” value [15, 21]?
**A.** 2

**Q.** And the “Redroot pigweed plant response rating” value [15, 22]?
**A.** 7

**Q.** What about the “Plant response rating, Redroot pigweed” value [15, 23] of the same compound?
**A.** 8

**Q.** What about the “Plant response rating, Rice (0 to 10 scale, 0 is no effect, 10 is complete control)” value [16, 24] of the same compound?
**A.** 0

**Q.** And the “Rice plant response rating (0 to 10 scale, 0 is no effect, 10 is complete control)” value [16, 25]?
**A.** 0

**Q.** And the “Rice plant response rating” value [16, 26]?
**A.** 0

**Q.** What about the “Rice plant response rating” value [16, 27] of the same compound?
**A.** 0
